Assays:
[1] = Test of visceral fat and adiponectin functions (method not described); format: in vivo; details: in words
3T3-L1 adipocytes = experiment: Adiponectin secretion promoting effect, Western blotting of culture supernatant; format: cell-based; details: for adiponectin secretion promoting effect: in words, no time or concentration stated
Experimental: (§1) 3T3-L1 adipocytes can be allowed to grow and maintained in a 5% CO2 environment in high-glucose DMEM containing 50 U/ml penicillin, 50 μg/ml streptomycin, and 10% FCS. The 3T3-L1 cells were subcultured in a dish of 3.5 cm in diameter until confluent and then sufficiently differentiated into adipocytes by culture for another 2 days in the presence of insulin (10 μg/ml), dexamethasone ([…]), and IBMX (3-isobutyl-1-methylxanthine) (0.5 mM). Teadenol A (10 μM) or DMSO (vehicle control) was added to the sufficiently differentiated 3T3-L1 adipocytes, and each culture supernatant was collected after 8, 24, 32, and 48 hours. The amount of adiponectin secreted was determined by Western blotting method.

PTP1B = PTP1B expression inhibitory effect in 3T3-L1 adipocytes, Western blotting; format: cell-based; details: for PTP1B expression inhibitory effect: in words, no time or concentration stated
Experimental: as §1
Teadenol A (10 μM) or DMSO (vehicle control) was added to the sufficiently differentiated 3T3-L1 adipocytes. After culture for 8, 24, 32, and 48 hours, the cells were collected, and the amount of PTP1B […] and the amount of α-tubulin were determined by Western blotting method.

Structure (SMILES)	adiponectin [1]	visceral fat [1]	adiponectin secretion promoting activity (3T3-L1 adipocytes; 10 μM, 3T3-L1 adipocytes, statistically significant difference after 24 and 48 hours)	PTP1B expression inhibitory activity (PTP1B; 10 μM, 3T3-L1 adipocytes, statistically significant difference after 32 hours)	adiponectin secretion promoting effect (3T3-L1 adipocytes)	PTP1B expression inhibitory effect (PTP1B)
C=C1C=C(C(=O)O)O[C@@H]2Cc3c(O)cc(O)cc3O[C@H]12 [Teadenol A, teadenol A]	increasing adiponectin	decreasing visceral fat	effective	effective	–	–
C=C1C=C(C(=O)O)O[C@@H]2Cc3c(O)cc(O)cc3O[C@@H]12 [Teadenol B, teadenol B]	–	–	–	–	effective	effective
C=C1C=C(C(=O)O)O[C@@H]2Cc3c(O)cc(O)cc3OC12 (some centres unmarked) [compound (1)]	–	–	–	–	confirmed to have	confirmed to have

— patent publication US8558016B2, “Polyphenol derivative and method for producing the same” (Kabaushiki Kaisha Riverson, priority 2009, dated 2013)
